Legend:
[1] = test system: NOD/SCID mice; experiment: Marrow repopulation assay of human cell grafts in NOD/SCID mice; assay type: in vivo; conditions: cells after 9 days of culture with cytokines; 7 weeks
Experimental: A colony of immunodeficient nonobese diabetic/ltsz-scid/scid (NOD/SCID) mice were purchased from the Jackson Laboratories (Bar Harbor, Me.) and were maintained as previously described (Coneallt et al., Proc. Nat'l Acad. Sci. USA, 94:9836-41, 1997). All NOD/SCID mice were kept under sterile conditions in the microisolator cages and were provided with autoclaved food and acidified water.
Mice were given 300cGy of total body gamma irradiation and human grafts were injected via the tail vein. Cytokines including SCF, IL-3 and GM-CSF at 5 ug/mouse were injected intraperitoneally on alternate days following injection of human grafts during the first week of transplant. Sulfamethoxazole (40 mg/mL) and Trimethoprim (8 mg/mL)(SMX/TMZ; Elkins-Sinn, Cherry Hill, N.J.) were added in the drinking water for 3 days post injection and then subsequently for 3 days beginning the second week of transplant. Mice were sacrificed after 7 weeks. Femurs and tibias were flushed with Hank's balanced salt solution (HBSS) (Biowhittiker) with 2% FBS (Hyclone) and 0.02% sodium azide and cell counts performed. […] Marrow cells were analyzed by flow cytometry to detect human cell engraftment as previously described.^29 Briefly to quantitate the total number of human cells present an aliquot of cells was stained with anti-CD45-FITC(BD) and anti-CD71-FITC(BD). […]

[2] = test system: adult human bone marrow CD34+ cells; experiment: Colony-forming cell (CFC) assay in methylcellulose; assay type: cell-based; conditions: for Total Number Colonies/plate / BFU-E / CFU-GM / CFU-Mix: cells after 9 days with cytokines, mean of 2 ± SEM; for BFU-E / CFU-GM / CFU-Mix: colonies/plate; for BFU (BFU-E colonies) / GM (CFU-GM colonies) / Mix (CFU-Mix colonies) / Total (colonies): mean of 3 experiments, 1000 unfractionated cells/plate after 9 days of culture, day 14; for Clonogenic potential: total colonies/number of cells plated×100; for Plating Efficiencies: total number of hematopoietic colonies/total cells plated × 100
Experimental: Colony-forming cells (CFC) were assayed under standard conditions in semisolid media as previously described (Brandt et al., Blood 94:106-113, 1999). Briefly 1×10^3 primary CD34^+ cells or unfractionated cultured cells exposed to different conditions used following 9 days of culture were plated in duplicate cultures containing 1 ml IMDM with 1.1% methylcellulose, 30% FBS, 5×10^−5 M 2-mercaptoethanol (Methocult, Stem Cell Technologies, Vancouver, BC, Canada), and a cocktail of growth factors including 100 ng/ml of SCF, 5 U/mL of EPO, 50 ng/mL of IL-3, 50 ng/mL of IL-6 and 50 ng/mL of G-CSF (Amgen Inc., Thousand Oaks, Calif.). The cells were plated into 35 mm tissue-culture dishes (Costar), and after 14 days of incubation at 37° C. in a 100%-humidified atmosphere containing 5% CO2, the colonies were scored with an inverted microscope following standard criteria (Breems et al., Leukemia, 8:1095-1104, 1994).

[3] = test system: adult human bone marrow CD34+ cells; experiment: Cell cycle analysis by FACS (SG2M %); assay type: cell-based; conditions: for SG2M % 48 hours: 48 hours from the start of the experiment; for SG2M % 72 hours: 72 hours from the start of the experiment
Experimental: Table 4. TSA Increases the Number of Cycling Cells. Cell cycle analysis at 48 h and 72 h from the start of the experiment is shown. Cells were examined by FACS analysis for cell cycle. SG2M % indicates cells in active DNA synthesis and indicates cells that may be actively cycling. This increased cycling allows the incorporation of the hypomethylating agent 5azaD.

Row | SMILES | marrow repopulating activity: engraftment and multilineage differentiation [1] | Total Number Colonies/plate [2] | BFU-E [2] | CFU-GM [2] | CFU-Mix [2] | BFU (BFU-E colonies) [2] | GM (CFU-GM colonies) [2] | Mix (CFU-Mix colonies) [2] | Total (colonies) [2] | Clonogenic potential [2] | Plating Efficiencies [2] | SG2M % 48 hours [3] | SG2M % 72 hours [3]
1 | Nc1ncn([C@H]2C[C@H](O)[C@@H](CO)O2)c(=O)n1 [5azaD, 5-aza2′deoxycitidine] | retained the ability to engraft NOD/SCID mice | 97.8 ± 11.1 | 4 ± 1.5 | 73.0 ± 0.25 | 20.8 ± 9.3 | 5 | 52 | 27 | 84 | 8.4% | 9.8 ± 1.1 | 36.5% | 35.5%
2 | CC(/C=C/C(=O)NO)=C\[C@@H](C)C(=O)c1ccc(N(C)C)cc1 [TSA, Trichostatin A] | no longer possessed such marrow repopulating activity | 14.3 ± 8.1 | 0.0 | 13 ± 6.6 | 1.3 ± 0.8 | 0 | 3 | 0 | 3 | 0.3% | 1.4 ± 0.8 | 36% | 41.6%

Reference: US7927785B2, “Methods for in vitro expansion of hematopoietic stem cells” (The Board of Trustees of the University of Illinois, priority 2002, dated 2011)
